Measurements reported in patent US8697662B2, “Methods for treating Kaposi sarcoma” (PTC Therapeutics, Inc., priority 2009, dated 2014).

Key:
[1] = test system: HT1080 cells; experiment: Migration of cells out of re-plated HT1080 spheroids; type: cell-based, human
Protocol: Experimental Design. […] Pictures were then taken 48 hours to assess the migration and proliferation of the cells across the well's surface.

[2] = Respiratory safety pharmacology study in awake telemeterized dogs; type: in vivo, beagle dogs; conditions: single oral doses of 30, 60, and 120 mg/kg, male dogs
[3] = Oral toxicokinetics in dogs; type: in vivo, beagle dogs
Protocol: The pharmacokinetic evaluations in mice were adjuncts to the primary pharmacodynamic xenograft studies. The evaluations in rats included toxicokinetic assessments in single-dose, 7-day, and 28-day toxicology studies as well as a mass-balance study after a single oral dose of ^14C-Compound #10. The evaluations in dogs included toxicokinetic assessments in 7-day and 28-day toxicology studies. In the studies performed, rodents were dosed once daily with Compound #10 formulated in vehicle and administered via oral gavage.

[4] = biological target: T1, CYP3A4 (Homo sapiens, UniProt P08684); experiment: CYP inhibition in human hepatic microsomes or recombinant isoenzymes: CYP3A4; type: in vitro ADME
T1 construct: host or cells: human hepatic microsomes or human recombinant isoenzymes
T1 sequence (P08684 whole entry): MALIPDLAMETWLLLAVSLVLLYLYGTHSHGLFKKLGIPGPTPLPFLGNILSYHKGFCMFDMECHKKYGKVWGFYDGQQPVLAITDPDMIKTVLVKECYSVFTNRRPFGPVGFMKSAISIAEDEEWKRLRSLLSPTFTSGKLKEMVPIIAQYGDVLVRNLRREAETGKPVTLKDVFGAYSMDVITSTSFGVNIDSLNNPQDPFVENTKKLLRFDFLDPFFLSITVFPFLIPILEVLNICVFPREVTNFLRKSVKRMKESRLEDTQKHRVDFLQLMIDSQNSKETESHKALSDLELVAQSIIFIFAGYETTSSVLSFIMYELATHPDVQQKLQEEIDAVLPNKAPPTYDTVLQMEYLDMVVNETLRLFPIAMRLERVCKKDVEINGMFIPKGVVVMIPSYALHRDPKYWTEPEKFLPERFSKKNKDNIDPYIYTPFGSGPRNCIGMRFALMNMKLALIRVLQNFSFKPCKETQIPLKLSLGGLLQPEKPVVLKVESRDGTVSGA
Description: (§1) It is possible that in certain clinical trial subjects, such agents may need to be adjusted for dosing or replaced by alternative agents that are not metabolized by CYP2D6, particularly when such agents may have a low therapeutic index.

[5] = biological target: T2, CYP2C9 (Homo sapiens, UniProt P11712); experiment: CYP inhibition in human hepatic microsomes or recombinant isoenzymes: CYP2C9; type: in vitro ADME
T2 construct: host or cells: human hepatic microsomes or human recombinant isoenzymes
T2 sequence (P11712 whole entry): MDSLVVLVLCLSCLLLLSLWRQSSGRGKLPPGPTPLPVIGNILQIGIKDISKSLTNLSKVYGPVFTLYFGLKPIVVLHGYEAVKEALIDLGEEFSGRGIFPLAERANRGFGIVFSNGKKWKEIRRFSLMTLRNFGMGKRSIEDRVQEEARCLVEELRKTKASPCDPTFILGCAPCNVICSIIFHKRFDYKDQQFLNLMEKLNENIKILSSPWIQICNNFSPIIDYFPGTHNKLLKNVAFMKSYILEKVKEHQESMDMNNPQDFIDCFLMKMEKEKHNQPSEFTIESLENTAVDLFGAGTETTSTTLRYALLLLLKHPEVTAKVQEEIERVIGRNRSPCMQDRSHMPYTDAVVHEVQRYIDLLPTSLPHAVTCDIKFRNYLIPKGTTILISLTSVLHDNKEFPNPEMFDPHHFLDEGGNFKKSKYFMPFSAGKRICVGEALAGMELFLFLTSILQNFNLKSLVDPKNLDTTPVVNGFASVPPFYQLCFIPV
Description: as §1

[6] = 28-day oral toxicity study in rats with 14-day recovery; type: in vivo
Protocol: A battery of genotoxicity studies was also performed. […] The L23 vehicle was used.
Exposures were maximal at 120 mg/kg/day.

[7] = test system: physiological VEGF-A; experiment: Phase 1 study in healthy volunteers: plasma and serum physiological VEGF-A concentrations; type: in vivo, human; conditions: any dose tested
Protocol: The study was performed under the oversight of the French health authorities. The study was not performed under an IND.
Plasma VEGF Concentrations: Plasma and serum VEGF concentrations and concentration changes from baseline were presented descriptively.

COc1ccc(C2c3[nH]c4ccc(Cl)cc4c3CCN2C(=O)Oc2ccc(Cl)cc2)cc1 (racemic) [Compound #10]
migration of cells out of the spheroid (in words) ([1]; control spheroids re-plated in the presence of 50 nM): blocked in their ability to migrate out of the spheroid
proliferative and migratory capacity after exposure (in words) ([1]; three-week exposure at 50 nM, re-plated in the absence of the compound): does not reduce either the proliferative or the migratory capacity
respiratory rate, core body temperature, arterial blood gases, arterial pH, arterial bicarbonate [2]: no dose dependent or biologically significant changes
oral bioavailability (in words) [3]: orally bioavailable
relationship between dose and plasma exposure (in words) ([3]; oral): bell-shaped curve
inhibition of CYP3A4 (in words) [4]: No meaningful inhibition
inhibition of CYP2C9 (in words) [5]: No meaningful inhibition
mean PT and aPTT ([6]; 40 and 120 mg/kg/day, males but not females, 28-day study): reversible increases
NOAEL at 28 days ([6]; both sexes, Sprague Dawley, rat, in vivo, rats, oral gavage): 12 mg/kg/day
dose at which exposures were maximal ([6]; rats, 12, 40, and 120 mg/kg/day, 28 days): 120 mg/kg/day
plasma or serum physiological VEGF-A concentrations [7]: No significant alterations
